Test results from patent US7960377B2 (priority 2008, dated 2011).

What was measured:
rat CB2 receptor = target: T1, rat CB2 receptor (Rattus norvegicus, UniProt Q9QZN9); experiment: cell-based; type: cell-based
T1 sequence (Q9QZN9 1-360): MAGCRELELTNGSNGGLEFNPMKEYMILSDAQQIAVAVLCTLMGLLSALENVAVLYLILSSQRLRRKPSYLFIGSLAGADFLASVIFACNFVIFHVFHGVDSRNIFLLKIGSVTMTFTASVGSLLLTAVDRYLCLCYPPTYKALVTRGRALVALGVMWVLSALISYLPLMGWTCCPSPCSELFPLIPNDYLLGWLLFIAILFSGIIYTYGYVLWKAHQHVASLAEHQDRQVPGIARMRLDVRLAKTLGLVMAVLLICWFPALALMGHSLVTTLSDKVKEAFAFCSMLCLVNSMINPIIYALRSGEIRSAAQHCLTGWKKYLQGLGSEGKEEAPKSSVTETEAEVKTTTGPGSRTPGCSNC

human CB1 receptor = human CB1 receptor (Homo sapiens, UniProt P21554); experiment: cell-based
Sequence of human CB1 receptor (P21554 whole entry): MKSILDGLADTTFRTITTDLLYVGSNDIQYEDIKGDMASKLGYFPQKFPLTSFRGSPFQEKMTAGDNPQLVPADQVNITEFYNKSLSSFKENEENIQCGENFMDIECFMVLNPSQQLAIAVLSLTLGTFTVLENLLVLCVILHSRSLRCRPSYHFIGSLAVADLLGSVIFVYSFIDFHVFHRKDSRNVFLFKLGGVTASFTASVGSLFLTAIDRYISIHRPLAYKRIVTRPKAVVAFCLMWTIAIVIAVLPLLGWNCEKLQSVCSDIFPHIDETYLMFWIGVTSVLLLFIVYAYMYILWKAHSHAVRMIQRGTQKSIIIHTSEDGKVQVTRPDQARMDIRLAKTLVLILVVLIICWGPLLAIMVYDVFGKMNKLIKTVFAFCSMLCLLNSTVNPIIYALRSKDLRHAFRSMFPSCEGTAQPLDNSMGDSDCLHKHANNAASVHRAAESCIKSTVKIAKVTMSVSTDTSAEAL

Row | Compound | EC50 (rat CB2 receptor) | EC50 (human CB1 receptor)
1 | CC(C)(CN1CCOCC1)NC(=O)c1cnc2c(c1)N(S(=O)(=O)c1ccc(Cl)cc1F)CCO2 [Example 113, 1-(4-chloro-2-fluorophenylsulfonyl)-N-(2-methyl-1-morpholinopropan-2-yl)-2,3-dihydro-1H-pyrido[2,3-b][1,4]oxazine-7-carboxamide] | ≤ 30 nM | > 30000 nM
2 | O=C(NC1(CO)CCC1)c1cnc2c(c1)N(S(=O)(=O)c1ccc(Cl)c(Cl)c1)CCO2 [Example 209, 1-(3,4-dichlorophenylsulfonyl)-N-(1-(hydroxymethyl)cyclobutyl)-2,3-dihydro-1H-pyrido[2,3-b][1,4]oxazine-7-carboxamide] | ≤ 30 nM | > 30000 nM
3 | O=C(NCc1ccccc1)c1cnc2c(c1)N(S(=O)(=O)c1ccc(Cl)c(Cl)c1)CCO2 [Example 138, N-benzyl-1-(3,4-dichlorophenylsulfonyl)-2,3-dihydro-1H-pyrido[2,3-b][1,4]oxazine-7-carboxamide] | ≤ 30 nM | > 30000 nM
4 | CCOC(=O)C1(NC(=O)c2cnc3c(c2)N(S(=O)(=O)c2ccc(Cl)c(Cl)c2)CCO3)CCC1 [Example 139, ethyl 1-(1-(3,4-dichloro-phenylsulfonyl)-2,3-dihydro-1H-pyrido[2,3-b][1,4]oxazine-7-carboxamido)cyclobutane-carboxylate] | ≤ 30 nM | > 30000 nM
5 | CC(C)(C)NC(=O)c1cnc2c(c1)N(S(=O)(=O)c1ccc(OC(F)(F)F)cc1)CCO2 [Example 48, N-tert-butyl-1-(4-(trifluoromethoxy)phenyl-sulfonyl)-2,3-dihydro-1H-pyrido[2,3-b][1,4]oxazine-7-carboxamide] | ≤ 30 nM | > 30000 nM
6 | CC(C)(CO)CNC(=O)c1cnc2c(c1)N(S(=O)(=O)N1CCC(F)CC1)CCO2 [Example 169, 1-(4-fluoropiperidin-1-ylsulfonyl)-N-(3-hydroxy-2,2-dimethylpropyl)-2,3-dihydro-1H-pyrido[2,3-b][1,4]oxazine-7-carboxamide] | ≤ 30 nM | > 30000 nM
7 | CCOC(=O)C1(NC(=O)c2cnc3c(c2)N(S(=O)(=O)c2ccc(C(F)(F)F)cc2)CCO3)CC1 [Example 70, ethyl 1-(1-(4-(trifluoromethyl)phenylsulf-onyl)-2,3-dihydro-1H-pyrido[2,3-b][1,4]oxazine-7-carboxamido)-cyclopropanecarboxylate] | ≤ 30 nM | > 30000 nM
8 | COCCCNC(=O)c1cnc2c(c1)N(S(=O)(=O)c1ccc(F)cc1)CCO2 [Example 12] | ≤ 30 nM | > 30000 nM
9 | CC(C)(C)NC(=O)c1cnc2c(c1)N(S(=O)(=O)NCc1ccccc1)CCO2 [Example 178, 1-(N-benzylsulfamoyl)-N-tert-butyl-2,3-dihydro-1H-pyrido[2,3-b][1,4]oxazine-7-carboxamide] | ≤ 30 nM | > 30000 nM
10 | CC1(C)N=C(c2cnc3c(c2)N(S(=O)(=O)c2ccc(C(F)(F)F)cc2)CCO3)NO1 [Example 223, 7-(5,5-dimethyl-2,5-dihydro-1,2,4-oxadiazol-3-yl)-1-(4-(trifluoromethyl)phenylsulfonyl)-2,3-dihydro-1H-pyrido[2,3-b][1,4]oxazine] | ≤ 30 nM | > 30000 nM
11 | CC(C)(CO)NC(=O)c1cnc2c(c1)N(S(=O)(=O)N1CCCCC1)CCO2 [Example 146, N-(1-hydroxy-2-methylpropan-2-yl)-1-(piperidin-1-ylsulfonyl)-2,3-dihydro-1H-pyrido[2,3-b][1,4]oxazine-7-carboxamide] | ≤ 30 nM | > 30000 nM
12 | CC(C)(O)CNC(=O)c1cnc2c(c1)N(S(=O)(=O)c1ccc(Cl)cc1F)CCO2 [Example 97, 1-(4-chloro-2-fluorophenylsulfonyl)-N-(2-hydroxy-2-methylpropyl)-2,3-dihydro-1H-pyrido[2,3-b][1,4]oxazine-7-carboxamide] | ≤ 30 nM | > 30000 nM
13 | CCc1noc(-c2cnc3c(c2)N(S(=O)(=O)c2ccccc2)CCO3)n1 [Example 210, 7-(3-ethyl-1,2,4-oxadiazol-5-yl)-1-(phenylsulfonyl)-2,3-dihydro-1H-pyrido[2,3-b][1,4]oxazine] | ≤ 30 nM | > 30000 nM
14 | O=C(NC1CCCC1)c1cnc2c(c1)N(S(=O)(=O)c1ccccc1F)CCO2 [Example 23, N-cyclopentyl-1-(2-fluorophenylsulfonyl)-2,3-dihydro-1H-pyrido[2,3-b][1,4]oxazine-7-carboxamide] | ≤ 30 nM | > 30000 nM
15 | CC(C)(C)NC(=O)c1cnc2c(c1)N(S(=O)(=O)c1ccccc1F)CCO2 [Example 22, N-tert-butyl-1-(2-fluorophenylsulfonyl)-2,3-dihydro-1H-pyrido[2,3-b][1,4]oxazine-7-carboxamide] | ≤ 30 nM | > 30000 nM
16 | CC(C)(O)CNC(=O)c1cnc2c(c1)N(S(=O)(=O)c1ccc(F)c(F)c1)CCO2 [Example 109, 1-(3,4-difluorophenylsulfonyl)-N-(2-hydroxy-2-methylpropyl)-2,3-dihydro-1H-pyrido[2,3-b][1,4]oxazine-7-carboxamide] | ≤ 30 nM | –

Row | Compound | EC50 (rat CB2 receptor) | EC50 (human CB1 receptor)
17 | CC(C)(C)NC(=O)c1cnc2c(c1)N(S(=O)(=O)N1CCCC1)CCO2 [Example 148, N-tert-butyl-1-(pyrrolidin-1-ylsulfonyl)-2,3-dihydro-1H-pyrido[2,3-b][1,4]oxazine-7-carboxamide] | ≤ 30 nM | –
18 | CN(CC(C)(C)CO)C(=O)c1cnc2c(c1)N(S(=O)(=O)c1ccc(Cl)c(Cl)c1)CCO2 [Example 121, 1-(3,4-dichlorophenylsulfonyl)-N-(3-hydroxy-2,2-dimethylpropyl)-N-methyl-2,3-dihydro-1H-pyrido[2,3-b][1,4]oxazine-7-carboxamide] | ≤ 30 nM | –
19 | CC(C)(CO)CNC(=O)c1cnc2c(c1)N(S(=O)(=O)N1CCC(C(F)(F)F)CC1)CCO2 [Example 155, N-(3-hydroxy-2,2-dimethylpropyl)-1-(4-(trifluoromethyl)piperidin-1-ylsulfonyl)-2,3-dihydro-1H-pyrido[2,3-b][1,4]oxazine-7-carboxamide] | ≤ 30 nM | –
20 | CNC(=O)[C@@H](N(C)C(=O)c1cnc2c(c1)N(S(=O)(=O)c1ccc(F)cc1)CCO2)C(C)(C)C [Example 58, (S)-N-(3,3-dimethyl-1-(methylamino)-1-oxobutan-2-yl)-1-(4-fluorophenylsulfonyl)-N-methyl-2,3-dihydro-1H-pyrido[2,3-b][1,4]oxazine-7-carboxamide] | ≤ 30 nM | –
21 | O=C(NC1CCCC1)c1cnc2c(c1)N(S(=O)(=O)c1ccc(F)cc1)CCO2 [Example 10] | ≤ 30 nM | –
22 | CC(C)(CO)NC(=O)c1cnc2c(c1)N(S(=O)(=O)c1ccc(F)cc1F)CCO2 [Example 102, 1-(2,4-difluorophenylsulfonyl)-N-(1-hydroxy-2-methylpropan-2-yl)-2,3-dihydro-1H-pyrido[2,3-b][1,4]oxazine-7-carboxamide] | ≤ 30 nM | –
23 | CCC(C)(C)NC(=O)c1cnc2c(c1)N(S(=O)(=O)N1CCOCC1)CCO2 [Example 142, 1-(morpholinosulfonyl)-N-tert-pentyl-2,3-dihydro-1H-pyrido[2,3-b][1,4]oxazine-7-carboxamide] | ≤ 30 nM | –
24 | CCC(C)(C)NC(=O)c1cnc2c(c1)N(S(=O)(=O)N1CCC(F)(F)C1)CCO2 [Example 164, 1-(3,3-difluoropyrrolidin-1-ylsulfonyl)-N-tert-pentyl-2,3-dihydro-1H-pyrido[2,3-b][1,4]oxazine-7-carboxamide] | ≤ 30 nM | –
25 | COC(=O)C1(NC(=O)c2cnc3c(c2)N(S(=O)(=O)c2ccc(Cl)c(Cl)c2)CCO3)CCOCC1 [Example 205, methyl 4-(1-(3,4-dichlorophenylsulfonyl)-2,3-dihydro-1H-pyrido[2,3-b][1,4]oxazine-7-carboxamido)tetrahydro-2H-pyran-4-carboxylate] | ≤ 30 nM | –
26 | O=S(=O)(c1ccc(F)cc1)N1CCOc2ncc(-c3nc4ncccc4o3)cc21 [Example 217] | ≤ 30 nM | –
27 | O=C(N[C@H]1CCC[C@H]1O)c1cnc2c(c1)N(S(=O)(=O)c1ccc(Cl)c(Cl)c1)CCO2 [Example 132, 1-(3,4-dichlorophenyl-sulfonyl)-N-((1S,2R)-2-hydroxycyclopentyl)-2,3-dihydro-1H-pyrido[2,3-b][1,4]oxazine-7-carboxamide] | ≤ 30 nM | –
28 | COC(=O)C(C)(C)NC(=O)c1cnc2c(c1)N(S(=O)(=O)c1ccc(Cl)c(Cl)c1)CCO2 [Example 136, methyl 2-(1-(3,4-dichlorophenylsulfonyl)-2,3-dihydro-1H-pyrido[2,3-b][1,4]oxazine-7-carboxamido)-2-methylpropanoate] | ≤ 30 nM | –
29 | CC(C)(CN1CCOCC1)NC(=O)c1cnc2c(c1)N(S(=O)(=O)c1ccc(Cl)c(Cl)c1)CCO2 [Example 112, 1-(3,4-dichlorophenylsulfonyl)-N-(2-methyl-1-morpholinopropan-2-yl)-2,3-dihydro-1H-pyrido[2,3-b][1,4]oxazine-7-carboxamide] | ≤ 30 nM | –
30 | COCCCNC(=O)c1noc(-c2cnc3c(c2)N(S(=O)(=O)c2ccc(F)cc2)CCO3)n1 [Example 216, 5-(1-(4-fluorophenylsulfonyl)-2,3-dihydro-1H-pyrido[2,3-b] [1,4]oxazin-7-yl)-N-(3-methoxypropyl)-1,2,4-oxadiazole-3-carboxamide] | ≤ 30 nM | –
31 | C[C@H]1CCCCN1C(=O)c1cnc2c(c1)N(S(=O)(=O)c1ccc(C(F)(F)F)cc1)CCO2 [Example 69, (S)-(2-methylpiperidin-1-yl)(1-(4-(trifluoromethyl)-phenylsulfonyl)-2,3-dihydro-1H-pyrido[2,3-b][1,4]oxazin-7-yl)-methanone] | ≤ 30 nM | –
32 | CC(C)(CO)NC(=O)c1cnc2c(c1)N(S(=O)(=O)N1CCC(C(F)(F)F)CC1)CCO2 [Example 152, N-(1-hydroxy-2-methylpropan-2-yl)-1-(4-(trifluoromethyl)piperidin-1-ylsulfonyl)-2,3-dihydro-1H-pyrido[2,3-b][1,4]oxazine-7-carboxamide] | ≤ 30 nM | –
